Measurements taken from US20250134902A1, “DRUG REPURPOSING FOR DELAYED TREATMENT OF ISCHEMIC STROKE” (UNIVESRITY OF NORTH TEXAS HEALTH SCIENCE CENTER, priority 2022, published 2025).
“Also recorded” adds a separate entry of the source.

Key:
rat blood = assay: Clotting (streak) assay of thrombotic potential
Experimental: Clotting assays. Thrombotic potential was assessed with trunk blood from donor rats using a protocol modified from Kim et al. (Kim et al., 2010). Oxeladin was compared to whole blood with or without the anticoagulant benzamidine and several other S1R ligands at doses 10× greater than those that stimulate the release of BDNF (Dalwadi et al., 2022; Dalwadi et al., 2017). Blood was rapidly collected into chilled, pre-weighed plastic tubes containing a known quality of EDTA disodium salt (>3.7 mM) electrostatically-coated onto the tube wall. Blood was prevented from coagulating by gently swirling the chilled EDTA-coated tube. The tube was weighed and the volume of collected blood calculated in order to compute the exact concentration of EDTA in the uncoagulated blood sample allowing us to determine which concentration of calcium to add back into the blood to initiate coagulation. Uncoagulated blood samples were stored chilled. The following was be dispensed into NUNC™ MICROWELL™ MiniTrays: 8 μL/well of normal saline containing a concentration of calcium 1.2 mM higher than that of the concentration of EDTA in the blood sample, 1 μL/well of oxeladin, 3 mM benzamidine anticoagulant positive control, or untreated or vehicle negative controls, and 1 μL/well of (EDTA-treated) uncoagulated rat blood. Plates were tilted at a 45° angle at 5, 15, 30, 45 and 60 minutes to observe coagulation (i.e., no streaking) and compared to the controls. Each triplicate well was scored by a treatment-blinded observer as Yes (coagulation, no streaking) or No (no coagulation, streaking). The experiment was repeated with two separate donor rats.
Referring to FIG. 5, the effect on thrombotic activity of test drugs, benzamidine anticoagulant positive control, or untreated or vehicle negative controls on whole blood from donor rats was assessed by tilting treated blood samples at a […] to observe coagulation (i.e., no streaking) between […] (top panel). Blood coagulation was represented by a value between 1 (no streaking, coagulation) and 0 (streaking, less or no coagulation), and values were assigned for each test drug, benzamidine, and untreated and vehicle controls (bottom panel). Quantitative results from these clotting assays, including coagulation half-life, are summarized below in Table 5.

[1] = system: rat model of focal cerebral ischemia (tMCAO); assay: Neurological function after transient middle cerebral artery occlusion (Bederson, NDS, EBST); type: in vivo; details: for Neurological Deficit Score (NDS), Dunn's test: 135 mg/kg/d p.o.
Experimental: Evaluating the effect of Sigma receptor agonists in a rat model of focal cerebral ischemia. Rats were anesthetized with 5% isoflurane in oxygen and maintained at ˜2% through a nosecone. Core temperature was maintained with an infrared heating pad controlled by a rectal probe. Transient middle cerebral artery occlusion (tMCAO) was performed as previously described (Oppong-Gyebi et al., 2022). Briefly, a midline incision was made from the neck to the sternum. The left common carotid artery and bifurcation was mobilized, and a silicon-coated suture (Doccol, Sharon MA) was inserted through the external carotid artery into the internal carotid artery to reach the origin of the MCA at the base of the brain. The incision was closed, and rats were allowed to awaken so that successful occlusion could be assessed. Rats not displaying hemiparesis immediately post-surgery were excluded from the study. After 85-90 minutes occlusion, rats were anesthetized, and the suture was withdrawn to allow reperfusion. Rats were injected subcutaneously with 5 ml saline bilaterally to provide hydration during recovery. On the day following tMCAO, rats were assessed for persistent signs of stroke.
Only rats displaying hemiparesis immediately post-surgery were included in the study. Rats with a Bederson score of 0 or <50% contralateral bias on the elevated body swing test (EBST) (Borlongan and Sanberg, 1995) on Day 1 after tMCAO were excluded from the study. Animals that became moribund or died within 24 hours of tMCAO were excluded from the study.
Two days before tMCAO rats were trained to lick 5% sucrose from a 1 ml syringe. After behavioral assessment on Day 1 after tMCAO, rats were randomly assigned to 4 groups in a blinded fashion. Groups included sucrose Vehicle, or 45, 68 or 135 mg/kg oxeladin. Oxeladin was prepared in 5% sucrose and provided to rats from the end of a 1 ml syringe. Starting 48 hours after stroke, rats were administered treatments daily from day 3 to day 14. On days 3-14 rats were injected i.p. with 50 mg/kg bromodeoxyuridine (BrdU; Fisher Bioreagents). At the conclusion of the study, rats were euthanized under deep isoflurane anesthesia. Rats were transcardially perfused with cold saline and either decapitated for brain collection and flash freezing of brain tissue or transcardially perfused with 4% formaldehyde for immunohistochemical studies.
On days 1, 3, 7, and 14 after tMCAO, rats underwent a series of behavioral tests by a treatment blinded observer. All tests were performed in a room dimly lit with red light. Rats were assessed by the Bederson test (Bederson et al., 1986), and an 11-point Neurological Deficit test as previously described (Oppong-Gyebi et al., 2022). The elevated body swing test (EBST) was performed in an open field with 30 seconds between each of 20 lifts by the base of the tail (Borlongan and Sanberg, 1995). The EBST was scored as percent of nose swing to the contralateral side to the tMCAO.
The observer scored the rats using the Bederson test, which evaluates global neurological function and grades rodents on a scale of 0-5. Grade 0 (no defects) is assigned if animals extend both forelimbs toward the floor when suspended above the floor. Grade 1 (mild defects) is given when animals show forelimb flexion without any other abnormality. Grade 2 (modest defects) is given when animals display forelimb flexion and decreased resistance to lateral push toward the paretic side. Animals further showing circling behavior are scored Grade 3 (severe defects).
The observer also scored the rats using the Elevated Body Swing Test (EBST) in which rats lifted by the tail and held vertically swing their heads to the left or to the right. Whereas healthy animals on a group level are likely to swing approximately 50% to either side, animals with a unilateral cerebral lesion, e.g. ischemic stroke, should present with a dominant/biased swing direction.

[2] = 68 mg/kg/d p.o. starting 48 hours after tMCAO, days 7 and 14

For `CCN(CC)CCOCCOC(=O)C(CC)(CC)c1ccccc1` [Oxeladin], the “effect on thrombosis in blood” value (rat blood) was “do not alter thrombosis”, the “Bederson score vs Vehicle” value [1, 2] was “significantly improved” and the “Elevated Body Swing Test (EBST) vs Vehicle” value [1, 2] was “significantly improved”. For the same compound, the “Bederson score vs Vehicle” value ([1]; 135 mg/kg/d p.o. starting 48 hours after tMCAO, days 3, 7 and 14) was “significant improvements; also recorded: significantly improved”, the “Neurological Deficit Score (NDS) vs Vehicle” value ([1]; 135 mg/kg/d p.o. starting 48 hours after tMCAO, days 3 and 7) was “significantly improved” and the “Elevated Body Swing Test (EBST) vs Vehicle” value ([1]; 135 mg/kg/d p.o. starting 48 hours after tMCAO, days 7 and 14) was “not 135 mg/kg showed improvement”. For the same compound, the “Neurological Deficit Score (NDS), Dunn's test” value ([1]; day 3 (P=0.072)) was “trend for improvement”, the “Neurological Deficit Score (NDS), Dunn's test” value ([1]; day 7 (P=0.028)) was “significant improvements” and the “functional recovery after tMCAO” value ([1]; overall conclusion, p.o. dosing) was “improves functional recovery”.
